For this experiment, the system named is reference seasonal A(H3N2) viruses A/Louisiana/50/2017 and A/Louisiana/49/2017. The experiment is described as follows: microbe, parasite or virus in culture. Type of experiment: cell-based, influenza A virus. The conditions noted are these: read-out: Mean EC50 + SD.

Usually EC50 stands for the concentration needed to bring the measured effect to its halfway point.

In the case of `O=C1c2c(O)c(=O)ccn2N([C@@H]2c3ccccc3SCc3c2ccc(F)c3F)[C@@H]2COCCN12` [baloxavir, baloxavir acid], the EC50 was found to be 14.1 nM.

For the origin of these results see article PMC11521183 (Emerging Infectious Diseases, 2024).
